Measurements taken from ChEMBL document CHEMBL1201862, “PubChem BioAssay data set” (2004).
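Test compounds were applied to cells in 96-well plates for 48 hours at 5 doses. GI50: concentration for 50% inhibition of growth.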 Calls of active or inactive are those of the source. Rule as the data show it: active = GI50 up to about 1.1 µM and inactive = higher. Peptide text beside a SMILES is read from it. * marks the point of attachment. Boc = CC(C)(C)OC(=O)*; OBn = c1ccc(CO*)cc1

Assays:
Assay in all cases: inhibition of tumour cell growth, NCI panel, 48 h
[1] = test system: MOLT-4
[2] = test system: CAKI-1
[3] = test system: HOP-92
[4] = test system: SF-295
[5] = test system: RXF 393
[6] = test system: M14
[7] = test system: SR
[8] = test system: ACHN
[9] = test system: SK-MEL-28
[10] = test system: 786-0
[11] = test system: TK-10
[12] = test system: HL-60
[13] = test system: SK-MEL-2
[14] = test system: HCT-116
[15] = test system: SK-MEL-5
[16] = test system: DU-145
[17] = test system: T47D
[18] = test system: MDA-MB-231
[19] = test system: PC-3

SMILES	GI50 [1]	GI50 [2]	GI50 [3]	GI50 [4]	GI50 [5]	GI50 [6]	GI50 [7]	GI50 [8]	GI50 [9]	GI50 [10]	GI50 [11]	GI50 [12]	GI50 [13]	GI50 [14]	GI50 [15]	GI50 [16]	GI50 [17]	GI50 [18]	GI50 [19]
Cc1ccc2c(C)c3ccc4ccccc4c3c[n+]2c1.[O-][Cl+3]([O-])([O-])[O-]	3.99 µM (inactive)	23.9 µM (inactive)	17.9 µM (inactive)	23.1 µM (inactive)	20.1 µM (inactive)	17.9 µM (inactive)	12 µM (inactive)	58.7 µM (inactive)	15.3 µM (inactive)	9.18 µM (inactive)	53.5 µM (inactive)	31.6 µM (inactive)	13.9 µM (inactive)	27.5 µM (inactive)	12 µM (inactive)	–	–	–	–
O=P(c1ccccc1)(c1ccccc1)C(NCc1ccccc1)c1ccc(F)cc1 (centres undefined)	14.2 µM (inactive)	17 µM (inactive)	12.9 µM (inactive)	15.2 µM (inactive)	13.4 µM (inactive)	14.7 µM (inactive)	15 µM (inactive)	13.8 µM (inactive)	15.1 µM (inactive)	18.5 µM (inactive)	15.9 µM (inactive)	17.5 µM (inactive)	15 µM (inactive)	12.8 µM (inactive)	15.9 µM (inactive)	20 µM (inactive)	26.5 µM (inactive)	11.1 µM (inactive)	–
COCCCNC(=O)C1=C(C)NC(C)=C(C(=O)NCCCOC)C1	> 100 µM (inactive)	> 100 µM (inactive)	89.3 µM (inactive)	> 100 µM (inactive)	> 100 µM (inactive)	> 100 µM (inactive)	> 100 µM (inactive)	> 100 µM (inactive)	> 100 µM (inactive)	> 100 µM (inactive)	> 100 µM (inactive)	> 100 µM (inactive)	> 100 µM (inactive)	> 100 µM (inactive)	> 100 µM (inactive)	> 100 µM (inactive)	> 100 µM (inactive)	> 100 µM (inactive)	> 100 µM (inactive)
Cc1c(/N=N/c2ccc(Cl)cc2)c(C)n(C2OC(CO)C(O)C(O)C2O)c(=S)c1C#N (centres undefined)	13.9 µM (inactive)	64.1 µM (inactive)	31.5 µM (inactive)	31.8 µM (inactive)	31.1 µM (inactive)	20 µM (inactive)	–	19.6 µM (inactive)	23.4 µM (inactive)	18.5 µM (inactive)	28.6 µM (inactive)	22.1 µM (inactive)	14.7 µM (inactive)	15.1 µM (inactive)	8.45 µM (inactive)	20.5 µM (inactive)	32.7 µM (inactive)	18.4 µM (inactive)	23.4 µM (inactive)
COc1cc(NCc2ccc3oc(=O)c(-c4ccccc4)nc3c2)cc(OC)c1OC	> 10 µM (inactive)	> 10 µM (inactive)	> 10 µM (inactive)	> 10 µM (inactive)	> 10 µM (inactive)	> 10 µM (inactive)	> 10 µM (inactive)	> 10 µM (inactive)	> 10 µM (inactive)	> 10 µM (inactive)	> 10 µM (inactive)	> 10 µM (inactive)	> 10 µM (inactive)	> 10 µM (inactive)	> 10 µM (inactive)	> 10 µM (inactive)	> 10 µM (inactive)	> 10 µM (inactive)	> 10 µM (inactive)
Clc1ccc(OCc2nnc3sc(SSc4nn5c(COc6ccc(Cl)cc6)nnc5s4)nn23)cc1	–	–	–	> 100 µM (inactive)	–	> 100 µM (inactive)	–	> 100 µM (inactive)	> 100 µM (inactive)	> 100 µM (inactive)	–	> 100 µM (inactive)	> 100 µM (inactive)	> 100 µM (inactive)	60.8 µM (inactive)	> 100 µM (inactive)	49.5 µM (inactive)	> 100 µM (inactive)	–
CC1(C)CC(C#Cc2ccccc2)CC(C)(C)N1O	46 µM (inactive)	20.6 µM (inactive)	15.2 µM (inactive)	15.6 µM (inactive)	19.5 µM (inactive)	19.1 µM (inactive)	52.7 µM (inactive)	25.8 µM (inactive)	16.6 µM (inactive)	22.2 µM (inactive)	20.4 µM (inactive)	14.8 µM (inactive)	20.7 µM (inactive)	20 µM (inactive)	16.1 µM (inactive)	16.1 µM (inactive)	16 µM (inactive)	15.2 µM (inactive)	11.6 µM (inactive)
N#Cc1ccc(/C=N/C23CC4CC(CC(C4)C2)C3)cc1	78.5 µM (inactive)	> 100 µM (inactive)	83.9 µM (inactive)	> 100 µM (inactive)	> 100 µM (inactive)	> 100 µM (inactive)	> 100 µM (inactive)	> 100 µM (inactive)	> 100 µM (inactive)	> 100 µM (inactive)	> 100 µM (inactive)	27 µM (inactive)	> 100 µM (inactive)	39.4 µM (inactive)	> 10 µM (inactive)	–	–	–	–
Cc1ccc(/C=N/Nc2nc3ccccc3s2)s1	> 100 µM (inactive)	79.3 µM (inactive)	> 100 µM (inactive)	40.9 µM (inactive)	82.6 µM (inactive)	> 100 µM (inactive)	–	> 100 µM (inactive)	> 100 µM (inactive)	66.5 µM (inactive)	69.2 µM (inactive)	> 100 µM (inactive)	> 100 µM (inactive)	> 100 µM (inactive)	38.9 µM (inactive)	> 100 µM (inactive)	4.05 µM (inactive)	24.7 µM (inactive)	27.9 µM (inactive)
CC(NC(=O)C(NC(=O)OC(C)(C)C)C(C)C)C(=O)N1CCCC1C(=O)NCC(=O)NC(C(=O)NCC(=O)OCc1ccccc1)C(C)C (centres undefined) (Boc-VAPGVG-OBn; configuration not given here)	> 10 µM (inactive)	> 100 µM (inactive)	> 100 µM (inactive)	> 100 µM (inactive)	–	> 100 µM (inactive)	> 100 µM (inactive)	> 100 µM (inactive)	> 100 µM (inactive)	> 100 µM (inactive)	> 100 µM (inactive)	> 100 µM (inactive)	> 100 µM (inactive)	> 100 µM (inactive)	–	> 100 µM (inactive)	> 100 µM (inactive)	> 100 µM (inactive)	> 100 µM (inactive)
Cc1ccc2c(c1)CC1(Cc3c(C)cccc3C1=O)C2=O (centres undefined)	> 100 µM (inactive)	–	40.2 µM (inactive)	69.8 µM (inactive)	> 100 µM (inactive)	> 100 µM (inactive)	> 100 µM (inactive)	> 100 µM (inactive)	> 100 µM (inactive)	> 100 µM (inactive)	> 100 µM (inactive)	> 100 µM (inactive)	–	> 100 µM (inactive)	> 100 µM (inactive)	> 100 µM (inactive)	> 100 µM (inactive)	> 100 µM (inactive)	> 100 µM (inactive)
COc1cc(C=C2C(C)=NN(c3cccc(Cl)c3)C23C(Cl)C(=O)N3c2nc3ccccc3s2)ccc1O (centres undefined)	0.461 µM (active)	26.3 µM (inactive)	6.7 µM (inactive)	37.1 µM (inactive)	13.5 µM (inactive)	11.6 µM (inactive)	0.111 µM (active)	19.2 µM (inactive)	23.3 µM (inactive)	19.8 µM (inactive)	30.7 µM (inactive)	0.546 µM (active)	17.5 µM (inactive)	19.9 µM (inactive)	17.2 µM (inactive)	21.9 µM (inactive)	27 µM (inactive)	4.08 µM (inactive)	14.9 µM (inactive)
OC1CN=C2c3ccccc3C(O)(c3ccc(Cl)cc3)N2C1 (centres undefined)	31 µM (inactive)	> 100 µM (inactive)	22 µM (inactive)	–	50 µM (inactive)	14.8 µM (inactive)	38.1 µM (inactive)	> 100 µM (inactive)	49.7 µM (inactive)	55 µM (inactive)	20.2 µM (inactive)	44.4 µM (inactive)	> 100 µM (inactive)	35.6 µM (inactive)	> 10 µM (inactive)	> 100 µM (inactive)	> 100 µM (inactive)	57.8 µM (inactive)	41.9 µM (inactive)
O=C1NC2C(=CC(O)C(O)C2O)c2cc3c(cc21)OCO3 (centres undefined)	0.109 µM (active)	0.28 µM (active)	0.904 µM (active)	0.582 µM (active)	0.154 µM (active)	0.244 µM (active)	0.109 µM (active)	0.144 µM (active)	0.417 µM (active)	0.245 µM (active)	0.418 µM (active)	0.108 µM (active)	0.351 µM (active)	0.15 µM (active)	0.164 µM (active)	0.056 µM (active)	0.0964 µM (active)	0.0486 µM (active)	0.141 µM (active)
Nc1ccc(-c2nn3c(COc4ccc(Cl)cc4)nnc3s2)cc1	51.3 µM (inactive)	54.2 µM (inactive)	–	56.9 µM (inactive)	49.3 µM (inactive)	> 100 µM (inactive)	–	> 100 µM (inactive)	> 100 µM (inactive)	> 100 µM (inactive)	> 100 µM (inactive)	> 100 µM (inactive)	> 100 µM (inactive)	–	> 100 µM (inactive)	> 100 µM (inactive)	> 100 µM (inactive)	87.3 µM (inactive)	88.7 µM (inactive)
O=C(c1ccc(Cl)cc1)N(C(=S)N1CCN(c2ccccn2)CC1)C1CCCCC1	24.3 µM (inactive)	> 100 µM (inactive)	> 100 µM (inactive)	74.1 µM (inactive)	35.6 µM (inactive)	> 100 µM (inactive)	41.1 µM (inactive)	43.6 µM (inactive)	> 100 µM (inactive)	36.4 µM (inactive)	> 100 µM (inactive)	17.3 µM (inactive)	> 100 µM (inactive)	36.6 µM (inactive)	38.7 µM (inactive)	–	–	–	–
